Measurements from patent publication US12157749B2, “Borate-based drug and use thereof” (Chengdu Origin Biotechnology Limited Company, priority 2018, dated 2024).

How the values were obtained:
Assay type in all cases: cell-based
[1] = tested on: human multiple myeloma cells KMS-11; assay: Activity test on human multiple myeloma cells KMS-11 (CCK-8, GI50); conditions: KMS-11 cells, 48 h incubation
Description: Cells KMS-11 (human multiple myeloma cells from JCRB ((Japanese Collection of Research Bioresources Cell Bank), AJCRB1179) were cultured to logarithmic growth phase in RPMI 1640 medium containing 10% fetal bovine serum at 37° C. and 5% CO2. The cells were inoculated into a 96-well culture plate in proper quantity per well. After being cultured at 37° C. and 5% CO2 for 24 h, solvent control DMSO or test compounds dissolved in DMSO were added to the cells, wherein the starting concentration of the test compound was 0.3 μM, and diluted 3-fold each time for a total of 6 times to obtain 6 concentration gradients. The cells were incubated with the test compounds at 37° C. and 5% CO2 for 48 h. CCK-8 reagent was added to each well and the cells were incubated at 37° C. for 2 h according to the reagent instructions, and the optical density value of each well was read with spectrophotometer at 450 nm wavelength.
The optical density value of the cell was set as Tz value when the drug had null action on the cell, which represented the cell value when the drug was added. The optical density value of the cells was set as C value after the cells were acted by solvent control DMSO for 48 h; and the optical density value of the cell was set as Ti value after the cells were acted by the test compounds for 48 h. According to the method proposed by NIH—NCI in the United States, the cell response to drugs was calculated as follows: [(Ti−Tz)/(C−Tz)]×100 when Ti≥Tz; [(Ti−Tz)/Tz]×100 when Ti<Tz. According to the above calculation, the GI50 value (the concentration of the test compound as required when the cell growth inhibition rate was […]) was calculated by using the 4-parameter logistic model in XLfit software.

[2] = tested on: human multiple myeloma cells RPMI-8226; assay: Activity test on human multiple myeloma cells RPMI-8226 (CCK-8, GI50); conditions: RPMI 8226 cells, 48 h incubation
Description: (§1) Cells RPMI-8226 (human multiple myeloma cells from ATCC (American type culture collection), ATCC CCL-155) and cells MM.1S (human multiple myeloma cells from ATCC (American type culture collection), ATCC CRL-2974) were cultured to logarithmic growth phase in RPMI 1640 medium containing 10% fetal bovine serum at 37° C. and 5% CO2. The cells were inoculated into 96-well culture plates in proper quantity per well. After culturing at 37° C. and 5% CO2 for 24 h, solvent control DMSO or test compounds dissolved in DMSO were added to the wells, wherein the starting concentration of the test compounds were […], and diluted 3-fold each time for a total of 6 times to obtain 6 concentration gradients. The cells were incubated together with the test compounds at 37° C. and 5% CO2 for 48 h. CCK-8 reagent was added to each well and the cells were incubated at 37° C. for 2 h according to the reagent instructions, and the optical density value of each well was read with spectrophotometer at 450 nm wavelength.
(§2) The optical density value of the cells was set as Tz value when the drugs had null action on the cell, which represented the cell value when the drugs were added. The optical density values of the cells were set as C value after the cells were acted by solvent control DMSO for 48 h; and the optical density values of the cell were set as Ti value after the cells were acted by the test compounds for 48 h. According to the method proposed by NIH—NCI in the United States, the cells' response to drugs was calculated as follows: [(Ti−Tz)/(C−Tz)]×100 when Ti≥Tz; [(Ti−Tz)/Tz]×100 when Ti<Tz. According to the above calculation, the GI50 value (the concentration of the test compound required when the cell growth inhibition rate was 50%) was calculated by using the 4-parameter logistic model in XLfit software.

[3] = tested on: human multiple myeloma cells MM.1S; assay: Activity test on human multiple myeloma cells MM.1S (CCK-8, GI50); conditions: MM1.S, MM.1S cells, 48 h incubation
Description: as §1, §2

GI50 [1] [nM]	GI50 [2] [µM]	GI50 [3] [µM]	Structure (SMILES)
35.7	–	–	CC(C)C[C@H](NC(=O)CNC(=O)c1cc(Br)ccc1F)B(O)O
87.8	–	–	CC(C)C[C@H](NC(=O)CNC(=O)c1cc(F)ccc1F)B1OC(=O)C(CC(=O)O)(CC(=O)O)O1
–	0.0107	0.0133	CC(C)C[C@H](NC(=O)CNC(=O)c1cc(Br)ccc1Cl)B1OC(=O)C(CC(=O)O)(CC(=O)O)O1 [drawing 60]
–	0.012	0.0112	CC(C)C[C@H](NC(=O)CNC(=O)c1cc(Br)ccc1F)B1OC(=O)C(CC(=O)O)(CC(=O)O)O1 [drawing 61]
–	0.0134	0.012	CC(C)C[C@H](NC(=O)CNC(=O)c1cc(F)ccc1Br)B1OC(=O)C(CC(=O)O)(CC(=O)O)O1 [drawing 64]
57.8	–	–	CC(C)C[C@H](NC(=O)CNC(=O)c1cc(C(F)(F)F)ccc1F)B1OC(=O)C(CC(=O)O)(CC(=O)O)O1 [drawing 67]

The remaining lines, values behind:

Structure (SMILES)	GI50 [1] [nM]	GI50 [2] [µM]	GI50 [3] [µM]
CC(C)C[C@H](NC(=O)CNC(=O)c1cc(Br)ccc1F)B1OC(=O)c2ccccc2O1	34.1	–	–
Cc1ccc(F)c(C(=O)NCC(=O)N[C@@H](CC(C)C)B2OC(=O)C(CC(=O)O)(CC(=O)O)O2)c1	90.5	–	–
CC(C)C[C@H](NC(=O)CNC(=O)c1cc(C(F)(F)F)ccc1F)B1OC(=O)C(CC(=O)O)(CC(=O)O)O1 [drawing 62]	–	0.0182	0.026
CC(C)C[C@H](NC(=O)CNC(=O)c1cc(Cl)ccc1Cl)B1OC(=O)C(CC(=O)O)(CC(=O)O)O1 [drawing 63]	–	0.0122	0.0128
CC(C)C[C@H](NC(=O)CNC(=O)c1cc(Br)ccc1F)B1OC(=O)C(CC(=O)O)(CC(=O)O)O1 [drawing 66]	39.7	–	–
CC(C)C[C@H](NC(=O)CNC(=O)c1cc(Br)ccc1F)B1OC(=O)C(c2ccccc2)O1 (stereo partly shown) [drawing 69]	29.9	–	–
CC(C)C[C@H](NC(=O)CNC(=O)c1cc(F)ccc1Br)B1OC(=O)C(CC(=O)O)(CC(=O)O)O1 [drawing 70]	35.7	–	–
CC(C)C[C@H](NC(=O)CNC(=O)c1cc(Cl)ccc1F)B1OC(=O)C(CC(=O)O)(CC(=O)O)O1 [drawing 71]	59	–	–
